Patent publication US6068976A, “Modulators of ob gene and screening methods therefor” (priority 1996, dated 2000)
Read-outs that look alike come from different tables or passages of the source. No end group written: not given here.

Legend:
[1] = tested on: PPAR nuclear hormone receptors; conditions: cited from earlier work
[2] = In vivo body weight, food intake and tissue weights in treated rats; conditions: for food consumption: 4 days, triamcinolone 20 or dexamethasone 3.7 μg/g body weight/day; for Epidydimal fat pad weight / Liver weight / Body Mass: oral gavage; for Epidydimal fat pad weight: control 2.5 ± 0.3, * p < 0.05; for Liver weight: control 16.8 ± 1.3; for Body Mass: control 344 ± 22
[3] = cited from earlier work
ob gene [4] = assay: In vivo ob mRNA levels in adipose tissue of treated rats (Northern/dot blot, actin-normalised); set-up: species or system rat
ob gene [5] = assay: Ex vivo endogenous ob mRNA expression in rat primary adipocytes; format: cell-based; conditions: for production of ob messenger RNA in rat primary adipocytes: insulin 100 nM or dexamethasone 33 nM; for ob mRNA expression in primary rat adipocytes: 24 hr
[6] = Body weight and food intake of male mice injected with ethinylestradiol; format: in vivo, mouse; conditions: 0.75 μg/g body weight, 7 day
human ob promoter [7] = assay: Human ob promoter-luciferase reporter in transfected rat primary adipocytes
human ob promoter [8] = assay: Human ob promoter-luciferase reporter in transfected 3T3-L1 cells
cachexia = conditions: cancer patients; cited from earlier work
[9] = in vivo; cited from earlier work
[10] = tested on: 3T3-F442A and ob 17 cells; conditions: cited from earlier work
[11] = 4 days, triamcinolone 20 or dexamethasone 3.7 μg/g body weight/day
[12] = hydrocortisone 1, 10 or 100 μg/g body weight, s.c., once daily, 20 days
[13] = hydrocortisone 100 μg/g body weight, once daily, 20 days
[14] = fenofibrate 0.5% w/w in food, 14 days

## CC(C)(Oc1ccc(Cl)cc1)C(=O)O [Clofibric acid]
[1]
  transcriptional activity of PPARs: stimulate transcriptional activity of the PPAR nuclear hormone receptors

## C[C@]12CC[C@H](O)CC1=CC[C@@H]1[C@@H]2CC[C@]2(C)C(=O)CC[C@@H]12 [DHEA, Dihydroepiandosterone]
[2]; DHEA, short experiment, rats
  food intake: significant decrease in food intake
[2]; DHEA, three day treatment, rats
  gain in body weight: capable of reducing the gain in body weight already after a three day treatment period

## N-propyl-thiouracil
[3]; rats, literature
  body weight: significant increase in body weight
  food intake: ingest less food

## C[C@@H]1C[C@H]2[C@@H]3CCC4=CC(=O)C=C[C@]4(C)[C@@]3(F)[C@@H](O)C[C@]2(C)[C@@]1(O)C(=O)CO [dexamethasone]
Ob gene [4]; [11]
  ob mRNA levels: increase of ob mRNA levels
Ob gene [4]; within 24 hr after a single injection of dexamethasone (3.7 μg/g)
  increase of ob mRNA levels in rat adipose tissue: 2.2 fold
Ob gene [5]; dexamethasone 33 nM vs insulin 100 nM, 48 hours
  stimulation of ob gene expression, comparison with insulin: stronger stimulation of ob gene expression than insulin
Ob gene [5]; 48 hours
  production of ob messenger RNA in rat primary adipocytes: stimulated production of the ob messenger RNA
[2]
  food consumption: reduced food consumption

## C#C[C@]1(O)CC[C@H]2[C@@H]3CCc4cc(O)ccc4[C@H]3CC[C@@]21C [ethinyl estradiol, ethinylestradiol]
[6]; injected, sham +1.81±1.04%
  decrease in body weight: 14.83±1.44%
[6]; male mice
  food intake: important reduction in food intake
[3]; ovariectomized rats, pair-fed
  body weight effect under pair-feeding: pair-feeding abolished the effects of estrogens on body weight
[3]; ovariectomized rats, substitution therapy
  body weight: marked effect on body weight in ovariectomized rats

## CCc1ccc(CCOc2ccc(CC3SC(=O)NC3=O)cc2)nc1 (centres unmarked) [Pioglitazone, pioglitazone]
Human ob promoter [7]; Homo sapiens, Adipocyte, read-out: decrease in pGL3-OB1 expression
  inhibition at 10 µM: ~30%
Human ob promoter [7]; Homo sapiens, Adipocyte, read-out: inhibition of pGL3-OB1 expression
  inhibition at 10 µM: ~50%

## CN(CCOc1ccc(CC2SC(=O)NC2=O)cc1)c1ccccn1 (centres unmarked) [BRL 49653, 5-[[4-[2-(methyl-2-pyridinylamino)ethoxy]phenyl]methyl]-2,4-thiazolidinedione]
Ob gene [4]; BRL 49653 0, 1, 2 or 5 mg/kg/day, 7 days
  effect on ob mRNA expression, dose dependence: dose-dependent
Ob gene [4]; BRL 49653 5 mg/kg/day, 7 days
  decrease of ob mRNA levels in epidydimal fat pads: 40%
Ob gene [5]; 100 μM, three independent experiments
  ob mRNA expression in primary rat adipocytes: reduced ob mRNA expression significantly
Ob gene [5]; primary adipocytes
  suppression of ob gene expression by PPARγ in primary adipocytes: amplifies the suppression of ob gene expression by PPARγ in primary adipocytes
Human ob promoter [8]; with PPARγ cotransfection
  effect on pGL3-OB1 in addition to PPARγ: slight cumulative effect
[2]; 0, 1, 2, and 5 mg/kg/day over 7 days
  body or liver weight: no change in either body or liver weight
[2]; 5 mg/kg/day, 7 days, 0.75%±0.1 before, p<0.05
  ratio of adipose tissue/body weight after treatment: 1.2%±0.2
[2]; 5, 10, 20 mg/kg/day over 7 days
  food intake: significant dose dependent increase in food intake
[2]; BRL 49653 1 mg/kg/day, 7 days
  Epidydimal fat pad weight: 3.3 ± 0.2 g
  Liver weight: 17.9 ± 1.3 g
[2]; BRL 49653 1 mg/kg/day, 7 days, mean ± SD
  Body Mass: 355 ± 21 g
[2]; BRL 49653 2 mg/kg/day, 7 days
  Epidydimal fat pad weight: 3.8 ± 0.5 g
  Liver weight: 18.9 ± 0.6 g
  Body Mass: 361 ± 18 g
[2]; BRL 49653 5 mg/kg/day, 7 days
  Epidydimal fat pad weight: 4.0 ± 0.6 g
  Liver weight: 17.4 ± 1.8 g
  Body Mass: 338 ± 9 g
[2]; BRL 49653 1, 2, 5 mg/kg/day, 7 days
  epidydimal fat pad weight (trend): dose-dependent increase in epidydimal fat pad weight
[2]; rats
  food intake and body weight (summary statement): increasing food intake and body weight in rats
[2]; relatively low doses (1, 2, 5 mg/kg/day), 7 days
  food intake: food intake showed a tendency to decrease, although no statistical significance was obtained
Human ob promoter [7]; 10 μM, with PPARγ cotransfection
  additional effect on ob promoter activity: no further effect
Human ob promoter [7]; Homo sapiens, Adipocyte, read-out: ob promoter activity reduced to
  activity at 10 µM: 40%

## CCCCC(CC)COC(=O)c1ccccc1C(=O)OCC(CC)CCCC (centres unmarked) [di-(2-ethylhexyl)-phtalate]
[1]
  transcriptional activity of PPARs: transcriptional activity of the PPARs can be induced

## C[C@]12CCC(=O)C=C1CC[C@@H]1[C@@H]2[C@@H](O)C[C@@]2(C)[C@H]1CC[C@]2(O)C(=O)CO [hydrocortisone]
Ob gene [4]; hydrocortisone 100 μg/g body weight/day
  time of maximal ob mRNA effect: 2 days
Ob gene [4]; hydrocortisone 100 μg/g body weight/day, adipose tissue
  increase of ob mRNA levels: more than 2 fold
Ob gene [4]; [12]
  ob mRNA levels in adipose tissue: dose-dependent induction of ob mRNA levels in adipose tissue
Ob gene [4]; hydrocortisone, entire treatment period
  β-actin mRNA levels: remained constant
[2]; hydrocortisone 100 μg/g body weight, 20 days
  body weight at end of treatment: slight decrease in body weight
[2]; [13]
  body weight gain: completely prevented this gain in body weight
  reduction of food consumption vs untreated animals: 10-15%
[2]; [12]
  body weight gain: dose-dependent reduction in body weight gain

## insulin: insulin (1 U; Actrapid HMge, Novo Nordisk)
Ob gene [4]; hyper- or eu-glycemic clamps
  stimulatory effect of insulin on ob mRNA under clamp: maintained when plasma glucose levels were maintained at either high or low levels
Ob gene [4]; refeeding plus insulin after overnight fast
  ob mRNA level, refeeding plus insulin: no additive effects on ob mRNA level
Ob gene [4]; single dose insulin (1 U), fasted rats, 4 hours
  increase in adipose tissue ob gene expression relative to fasted rats: 50-60%
Ob gene [4]; single subcutaneous injection 1 I.U. insulin, 4 hours post injection, fasted rats
  increase in ob mRNA relative to actin controls: approximately two-fold increase
Ob gene [5]; 1 or 10 nM insulin, 10% FBS
  production of ob mRNA in primary rat adipocytes: stimulated the production of ob mRNA in a dose dependent manner
Ob gene [5]; 48 hours
  production of ob messenger RNA in rat primary adipocytes: stimulated production of the ob messenger RNA
Human ob promoter [8]; pGL3-OB1 in 3T3-L1 cells, insulin, control plasmid unaffected
  ob promoter luciferase expression in response to insulin: two-fold
Human ob promoter [7]; 200 nM insulin, 10% FBS, primary adipocytes with pGL3B-OB1
  increase of the level of ob mRNA (pGL3B-OB1 luciferase vector): 140%

## CC(C)OC(=O)C(C)(C)Oc1ccc(C(=O)c2ccc(Cl)cc2)cc1 [fenofibrate]
Ob gene [4]; [14]
  ob mRNA levels: did not result in a reduction of ob mRNA levels
[1]
  transcriptional activity of PPARs: stimulate transcriptional activity of the PPAR nuclear hormone receptors
[2]; [14]
  body or adipose tissue weight: did not result in a change in body or adipose tissue weight
[2]; fenofibrate 0.5% w/w in food, 14 days, from 13.8±0.5
  liver weight after treatment: 19.7 ± 2.5 g

## CC(=O)CCCCn1c(=O)c2c(ncn2C)n(C)c1=O [pentoxifylline]
cachexia
  reduction of cachexia: improve the conditions of some patients

## C[C@]12C=CC(=O)C=C1CC[C@H]1[C@@H]3C[C@@H](O)[C@](O)(C(=O)CO)[C@@]3(C)C[C@H](O)[C@@]12F [triamcinolone]
Ob gene [4]; [11]
  ob mRNA levels: increase of ob mRNA levels
[2]
  food consumption: reduced food consumption

## CC(C)(Oc1ccc(Cl)cc1)C(=O)OCCOC(=O)c1cccnc1 [etiofibrate]
[1]
  transcriptional activity of PPARs: stimulate transcriptional activity of the PPAR nuclear hormone receptors

## CC(COc1ccccc1)N(CCCl)Cc1ccccc1 (centres unmarked) [phenoxybenzamide]
[9]
  weight gain and fat accumulation: prevents weight gain and fat accumulation

## CC1=C(/C=C/C(C)=C/C=C/C(C)=C/C(=O)O)C(C)(C)CCC1 [Retinoic acid]
[10]
  adipogenesis: inhibit adipogenesis

## Cc1ccc(C)c(OCCCC(C)(C)C(=O)O)c1 [gemfibrozil]
[1]
  transcriptional activity of PPARs: stimulate transcriptional activity of the PPAR nuclear hormone receptors

## CC(C)(Oc1ccc(C(=O)c2ccc(Cl)cc2)cc1)C(=O)O [fenofibric acid]
Ob gene [5]; 250 μM
  ob mRNA expression in primary rat adipocytes: no effect of fenofibrate on ob mRNA levels was detected

## N[C@@H](Cc1cc(I)c(Oc2cc(I)c(O)c(I)c2)c(I)c1)C(=O)O [thyroxine]
[3]; rats, literature
  body weight: decrease in body weight
  food intake: increase in food intake

## corticotropin-releasing hormone: corticotropin-releasing hormone (SEEPPISLDLTFHLLREVLEMARAEQLAQQAHSNRKLMEII; ends and bridges not checked; UniProt P06850 154-194, looked up)
[3]; hypothalamic administration, fat rats
  body weight: reduces body weight

## O=C(O)COc1cc(Cl)c(Cl)cc1Cl [2,4,5-trichlorophenoxyacetic acid]
[1]
  transcriptional activity of PPARs: transcriptional activity of the PPARs can be induced
